The values below come from paper PMC9019904, “AD Informer Set: Chemical tools to facilitate Alzheimer's disease drug discovery” (Alzheimer's & Dementia : Translational Research & Clinical …, 2022).

Values after ≈ are worked out from the molar mass of the structure shown. Read-outs that look alike come from different tables or passages of the source.

Data set [1] deals with BV2 (mouse microglia) cell line. In words: pHrodo-myelin phagocytosis/cell viability high content imaging assay: viability (cell count, nuclear area, nuclear intensity). The method, boiled down: (§1)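 Viability was read as total cell count per well by high-content imaging, with mean average nuclear intensity per cell profiling apoptosis (rise early, fall late). Compounds were given at 10 μM for 48 h, pHrodo-myelin being added for the final 20 h. Values are means of two points as % untreated control.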

For data set [2] the test system is unchanged. In words: pHrodo-myelin phagocytosis/cell viability high content imaging assay: phagocytosis signal. Format: cell-based. The method, boiled down:
(§2)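 Simultaneous phagocytosis/viability imaging at approximately 22 h after adding pHrodo-myelin. Rising intensity flagged early apoptosis and falling intensity later apoptosis.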

A further data set concerns cellular system. The following applies: published cellular activity at 10 μM; cited from earlier work.
Another data set is described as follows: physchem. The following applies: pH 7.4, aqueous buffer, kinetic from dmso stock.
For data set [3], the system named is HMC3 (human microglia) cell line. In words: pHrodo-myelin phagocytosis/cell viability high content imaging assay: viability (cell count, nuclear area, nuclear intensity). A digest of the protocol:
as §1

For data set [4] the test system is unchanged. In words: pHrodo-myelin phagocytosis/cell viability high content imaging assay: phagocytosis signal. The class given is cell-based. A digest of the protocol:
as §2

Data set [5] deals with protein product expressed by the gene target. The following applies: cited from earlier work.
A short description of data set [6]: Kinetic solubility in aqueous buffer pH 7.4 by total chemiluminescent nitrogen determination (Analiza). The following applies: aqueous buffer, pH 7.4, aqueous buffer, kinetic from dmso stock.
Where [7] appears, read: BV2 cells, 10 μM, cell count <70% control.
Setting [8] is: BV2 cells, 10 uM compound, 48 hours treatment.
The mark [9] stands for this setting: HMC3 cells, 10 uM compound, 48 hours treatment.

By kinetic solubility is commonly meant the concentration staying in solution when a stock, usually in DMSO, is diluted into the medium. With `Cc1cc(Nc2nc(N[C@@H](C)c3ncc(F)cn3)ncc2Cl)n[nH]1` [AZD-1480], in data set [1] (setting [7]), the “Mouse microglial cytotoxicity at 10 μM (<70% control)” value is “Y (The compound was found to be cytotoxic (cell count threshold: <70% control) when murine immortalized microglial cells were dosed at 10 μM (Y: yes))”. Also, the “Stimulation of mouse microglial phagocytosis at 10 μM (>150% control)” value in data set [2] (BV2 cells, 10 μM) is “Y (The compound was found to stimulate phagocytosis (response threshold: >150% control) when murine immortalized microglial cells were dosed at 10 μM (Y: yes))”. In addition, the “Reported as cell active (<10 μM)” value with cellular system is recorded as “Y (Published data supports that the compound is active in a cellular system when dosed at 10 μM (Y/N))”. The kinetic solubility in the data set “physchem” was 141 µM (≈ 49 µg/mL).
As to `CCc1cc2c(cc1N1CCC(N3CCOCC3)CC1)C(C)(C)c1[nH]c3cc(C#N)ccc3c1C2=O` [Alectinib], the “Human microglial cytotoxicity at 10 μM (<70% control)” value in data set [3] (HMC3, 10 μM) was “Y (The compound was found to be cytotoxic (cell count threshold: <70% control) when human immortalized microglial cells were dosed at 10 μM (Y: yes))”. In data set [2] (BV2, 10 μM), the “Stimulation of mouse microglial phagocytosis at 10 μM (>150% control)” value is listed as “Y (The compound was found to stimulate phagocytosis (response threshold: >150% control) when murine immortalized microglial cells were dosed at 10 μM (Y: yes))”. For the same compound, the “Inhibition of human microglial phagocytosis at 10 μM (<70% control)” value in data set [4] (HMC3, 10 μM) was “Y (The compound was found to inhibit phagocytosis (response threshold: <70% control) when human immortalized microglial cells were dosed at 10 μM (Y: yes))”. This compound also yielded a kinetic solubility in the data set “physchem” of 0.6 µM (≈ 0.29 µg/mL).
Turning to `COc1nc(OCc2cccc(-c3ccccc3)c2C)ccc1CNCCNC(C)=O.Cl` [BMS-202], the “Mouse microglial cytotoxicity at 10 μM (<70% control)” value in data set [1] (setting [7]) was “Y (The compound was found to be cytotoxic (cell count threshold: <70% control) when murine immortalized microglial cells were dosed at 10 μM (Y: yes))”. The “Human microglial cytotoxicity at 10 μM (<70% control)” value in data set [3] (HMC3 cells, 10 μM, cell count <70% control) was “Y (The compound was found to be cytotoxic (cell count threshold: <70% control) when human immortalized microglial cells were dosed at 10 μM (Y: yes))”. In addition, in data set [2] (BV2 cells, 10 μM), the “Inhibition of mouse microglial phagocytosis at 10 μM (<70% control)” value was “Y (The compound was found to inhibit phagocytosis (response threshold: <70% control) when murine immortalized microglial cells were dosed at 10 μM (Y: yes))”. Also, the “Inhibition of human microglial phagocytosis at 10 μM (<70% control)” value in data set [4] (HMC3 cells, 10 μM) is given as “Y (The compound was found to inhibit phagocytosis (response threshold: <70% control) when human immortalized microglial cells were dosed at 10 μM (Y: yes))”. Also, the “Reported as cell active (<10 μM)” value in the data set with cellular system is “Y (Published data supports that the compound is active in a cellular system when dosed at 10 μM (Y/N))”. In “physchem”, this compound yielded a kinetic solubility of 97.9 µM.
As to `O=S(=O)(c1ccc2c(c1)C(=NO)c1cc(S(=O)(=O)N3CCCCC3)ccc1-2)N1CCCCC1` [CA3 (CIL56)], the “Mouse microglial cytotoxicity at 10 μM (<70% control)” value in data set [1] (BV2, 10 μM, cell count <70% control) is “Y (The compound was found to be cytotoxic (cell count threshold: <70% control) when murine immortalized microglial cells were dosed at 10 μM (Y: yes))”. Also, the “Human microglial cytotoxicity at 10 μM (<70% control)” value in data set [3] (HMC3, 10 μM, cell count <70% control) is on record as “Y (The compound was found to be cytotoxic (cell count threshold: <70% control) when human immortalized microglial cells were dosed at 10 μM (Y: yes))”. The “Inhibition of mouse microglial phagocytosis at 10 μM (<70% control)” value in data set [2] (BV2, 10 μM) was “Y (The compound was found to inhibit phagocytosis (response threshold: <70% control) when murine immortalized microglial cells were dosed at 10 μM (Y: yes))”. Further, the “Inhibition of human microglial phagocytosis at 10 μM (<70% control)” value in data set [4] (HMC3, 10 μM) is “Y (The compound was found to inhibit phagocytosis (response threshold: <70% control) when human immortalized microglial cells were dosed at 10 μM (Y: yes))”. This compound came in with a solubility (kinetic) in “physchem” of 1.2 µM (≈ 0.588 µg/mL).
In the case of `O=C(N/N=C/c1ccc(Cl)cc1)c1ccccc1` [Compound 1e], in data set [5] (gene target CTSH, ref PubMed 25181676), the “Reported on-target biochemical potency” value was 440 nM. For the same compound, the solubility (kinetic) in data set [6] amounted to 37.8 µM (≈ 9.78 µg/mL).
With `Cc1cc(SCc2sc(-c3ccc(C(F)(F)F)c(F)c3)nc2C)ccc1OCC(=O)O` [GW0742], the “Reported as cell active (<10 μM)” value with cellular system is reported as “Y (Published data supports that the compound is active in a cellular system when dosed at 10 μM (Y/N))”. In addition, the kinetic solubility in “physchem” is 145 µM (≈ 68.3 µg/mL).
Turning to `CC[C@H](C)[C@H](N)C(=O)NCCN1CCOCC1.Cl.Cl` [LM11A-31 dihydrochloride], in data set [2] (BV2 cells, 10 μM), the “Stimulation of mouse microglial phagocytosis at 10 μM (>150% control)” value is on record as “Y (The compound was found to stimulate phagocytosis (response threshold: >150% control) when murine immortalized microglial cells were dosed at 10 μM (Y: yes))”. The “Reported as cell active (<10 μM)” value in the data set on cellular system was “Y (Published data supports that the compound is active in a cellular system when dosed at 10 μM (Y/N))”. Besides, in “physchem”, the solubility (kinetic) is 178 µM.
As for `O=C(Nc1ccc([N+](=O)[O-])cc1Cl)c1cc(Cl)ccc1O` [Niclosamide], the “Inhibition of human microglial phagocytosis at 10 μM (<70% control)” value in data set [4] (HMC3 cells, 10 μM) is recorded as “Y (The compound was found to inhibit phagocytosis (response threshold: <70% control) when human immortalized microglial cells were dosed at 10 μM (Y: yes))”. Moreover, the “Reported as cell active (<10 μM)” value in the data set on cellular system was “Y (Published data supports that the compound is active in a cellular system when dosed at 10 μM (Y/N))”. In addition, the solubility (kinetic) in the data set “physchem” turned out to be 17.5 µM (≈ 5.72 µg/mL).
On to `Cl.NC(=O)c1cnc(N[C@@H]2CCCC[C@@H]2N)nc1Nc1cccc(-n2nccn2)c1` [P505-15 (PRT06207 HCl)], for which, in data set [2] (BV2 cells, 10 μM), the “Inhibition of mouse microglial phagocytosis at 10 μM (<70% control)” value is reported as “Y (The compound was found to inhibit phagocytosis (response threshold: <70% control) when murine immortalized microglial cells were dosed at 10 μM (Y: yes))”. Moreover, in data set [4] (HMC3 cells, 10 μM), the “Inhibition of human microglial phagocytosis at 10 μM (<70% control)” value is “Y (The compound was found to inhibit phagocytosis (response threshold: <70% control) when human immortalized microglial cells were dosed at 10 μM (Y: yes))”. The “Reported as cell active (<10 μM)” value in the data set on cellular system is listed as “Y (Published data supports that the compound is active in a cellular system when dosed at 10 μM (Y/N))”. This compound showed a solubility (kinetic) in the data set “physchem” of 118 µM.
For `CCN(CC)Cc1ccc(C(=O)N(CCc2ccccc2OC)[C@@H]2CCNC2)cc1.Cl.Cl` [PF429242], the “Stimulation of mouse microglial phagocytosis at 10 μM (>150% control)” value in data set [2] (BV2 cells, 10 μM) was “Y (The compound was found to stimulate phagocytosis (response threshold: >150% control) when murine immortalized microglial cells were dosed at 10 μM (Y: yes))”. The “Inhibition of human microglial phagocytosis at 10 μM (<70% control)” value in data set [4] (HMC3 cells, 10 μM) is “Y (The compound was found to inhibit phagocytosis (response threshold: <70% control) when human immortalized microglial cells were dosed at 10 μM (Y: yes))”. Also, the “Reported as cell active (<10 μM)” value in the data set on cellular system was “Y (Published data supports that the compound is active in a cellular system when dosed at 10 μM (Y/N))”. For the same compound, in “physchem”, the kinetic solubility was 131 µM.
Take `Cc1ccc(S(=O)(=O)O)cc1.Nc1n[nH]cc1-c1cc(Cl)ccc1Oc1cc(F)c(S(=O)(=O)Nc2cscn2)cc1Cl` [PF-05089771]: the “Reported as cell active (<10 μM)” value in the data set with cellular system is “Y (Published data supports that the compound is active in a cellular system when dosed at 10 μM (Y/N))”. The compound also showed a kinetic solubility in the data set “physchem” of 76.4 µM.
As to `O=c1[nH]c2ccccc2n1C1CCN(CCCC(c2ccc(F)cc2)c2ccc(F)cc2)CC1` [Pimozide], in the data set on cellular system, the “Reported as cell active (<10 μM)” value is “Y (Published data supports that the compound is active in a cellular system when dosed at 10 μM (Y/N))”. In the data set “physchem”, this compound yielded a solubility (kinetic) of 2.9 µM (≈ 1.34 µg/mL).
As for `NC(=O)[C@@H]1CC[C@H](c2ccc(OCc3ccccc3F)cc2)N1` [Raxatrigine], the “Stimulation of mouse microglial phagocytosis at 10 μM (>150% control)” value in data set [2] (BV2 cells, 10 μM) is on record as “Y (The compound was found to stimulate phagocytosis (response threshold: >150% control) when murine immortalized microglial cells were dosed at 10 μM (Y: yes))”. The “Reported as cell active (<10 μM)” value in the data set on cellular system is given as “Y (Published data supports that the compound is active in a cellular system when dosed at 10 μM (Y/N))”. The same compound came in with a kinetic solubility in the data set “physchem” of 178 µM (≈ 55.9 µg/mL).
Regarding `N#CC(CCCN1CCN(/N=C/c2cccnc2)CC1)(c1ccccc1)c1ccccc1` [SC-26196], the “Reported on-target biochemical potency” value in data set [5] (gene target FADS2, ref PubMed 18719641, 23112819, 10419129) is on record as 200 nM. Besides, the solubility (kinetic) in data set [6] came to 1.9 µM (≈ 0.805 µg/mL).
Regarding `Cl.O=C(NCCCNc1nc(Nc2cccc(CN3CCOCC3)c2)ncc1C1CC1)C1CCC1` [UNC10302867A, reference compound], in data set [1] (10 μM, BV2), the “Mouse microglial cytotoxicity at 10 μM (<70% control)” value is on record as “Y (The compound was found to be cytotoxic (cell count threshold: <70% control) when murine immortalized microglial cells were dosed at 10 μM (Y: yes))”. In data set [1] (setting [8]), the “1. Cell count (% control)” value is 17.6 % control, the “2. Nuclear Area (% Control)” value is 154.0 % Control and the “3. Nuclear DNA Intensity (% control)” value is 122.3 % control. In data set [3] (setting [9]), the “1. Cell count (% control)” value came to 81.1 % control, the “2. Nuclear Area (% Control)” value is listed as 129.3 % Control and the “3. Nuclear DNA Intensity (% control)” value came out at 124.9 % control. Also, the “Stimulation of mouse microglial phagocytosis at 10 μM (>150% control)” value in data set [2] (10 μM, BV2) was “Y (The compound was found to stimulate phagocytosis (response threshold: >150% control) when murine immortalized microglial cells were dosed at 10 μM (Y: yes))”. In data set [2] (BV2, 10 μM, pHrodo-myelin), the “phagocytosis in mouse microglial cells (< 70% control inhibition, > 150% control stimulation)” value was “stimulator of phagocytosis”. In data set [2] (BV2 cells, 10 uM compound, 48 hours treatment, pHrodo-myelin final 20 hours), the “4. Phagocytosis (% control)” value was determined as 282.0 % control. Further, in data set [4] (10 μM, HMC3), the “Stimulation of human microglial phagocytosis at 10 μM (>150% control)” value was “Y (The compound was found to stimulate phagocytosis (response threshold: >150% control) when human immortalized microglial cells were dosed at 10 μM (Y: yes))”. Also, the “phagocytosis in human microglial cells (< 70% control inhibition, > 150% control stimulation)” value in data set [4] (HMC3, 10 μM, pHrodo-myelin) is given as “stimulator of phagocytosis”. The “4. Phagocytosis (% control)” value in data set [4] (HMC3 cells, 10 uM compound, 48 hours treatment, pHrodo-myelin final 20 hours) turned out to be 290.0 % control. The kinetic solubility in the data set “physchem” is 119 µM.
